Data as given in patent USRE48461E1, “Modulation of androgen receptor expression” (Ionis Pharmaceuticals, Inc., priority 2012, dated 2021).
Oligonucleotides are written 5' to 3', each unit as a sugar letter and its base; * is a phosphorothioate linkage, no mark a phosphodiester; rarer units and linkages stand in square brackets, end groups in braces. Plain capitals give the bases only. k = constrained ethyl (cEt); [5mC] = 5-methylcytosine; d = 2'-deoxy (DNA)

Key:
[1] = tested on: V7 splice variant of the AR mRNA; assay: AR V7 splice variant mRNA in CWR22-RV1 cells (RT-PCR SYBR Green); type: cell-based, human; conditions: RNAiMax, 6 days
C4-2B cells [2] = assay: C4-2B cell proliferation by free uptake (MTT); type: cell-based, human; conditions: day 6
Description: (§1) Cells were plated at a concentration of 1,000 cells/well in 96-well plates to measure cell proliferation, and at 4,000 cells/well to measure target reduction. ISIS 549458, ISIS 549372, ISIS 549434, and ISIS 554221 were added individually at 0.04 μM, 0.20 μM, 1.00 μM, or 5.00 μM. After an incubation period of 24 hrs, mRNA levels were measured using hAR_LTS00943.
On day 6, cells plated for measuring proliferation were incubated with MTT reagent until the development of color. Color intensity was measured using a spectrophotometer at 490 nm.

AR-V7 = assay: Western blot of AR-V7 in MDV3100-resistant C4-2B cells; type: cell-based, human
Description: ISIS 549372, ISIS 549434, and ISIS 554221 at 1 μM concentration of antisense oligonucleotide were each added to the culture media at 1 μM concentration for free uptake by the cells. After a treatment period of 2 days, cells were harvested in RIPA buffer containing protease inhibitors. The presence of bands for full-length AR, as well as the variant form, AR-V7, was detected by western blot using AR antibody (N-20, Santa Cruz).
Western analysis of full-length AR, as well as the AR-V7 variant, was also conducted in a manner similar to the assay described above.

KLK3 mRNA = KLK3 mRNA (AR target gene) in C4-2B MR cells; type: cell-based, human; conditions: C4-2B MR cells, 0.04-5.00 μM
AR full-length mRNA = AR full-length mRNA in CWR22-RV1 cells (RNAiMax, RTS3559); type: cell-based, human; conditions: 6 days
KLK2 mRNA = KLK2 mRNA (AR target gene) in C4-2B MR cells; type: cell-based, human; conditions: C4-2B MR cells, 0.04-5.00 μM
full-length AR = assay: Western blot of full-length AR in MDV3100-resistant C4-2B cells; type: cell-based, human
AR mRNA [3] = assay: AR mRNA in C4-2B cells by free uptake (hAR_LTS00943); type: cell-based, human; conditions: 24 hrs; for Percent inhibition of AR full-length mRNA: free uptake
Description: as §1

CWR22-RV1 cells = assay: CWR22-RV1 cell proliferation (CellTiter 96); type: cell-based, human; conditions: RNAiMax, 6 days
total AR mRNA = assay: Total (full-length) AR mRNA in C4-2B MR cells, free uptake; type: cell-based, human; conditions: C4-2B MR cells, 0.04-5.00 μM free uptake, 24 hrs
Description: Cells were plated at a density of 40,000 cells per well in 96-well plates and cultured in RPMI1640 medium with 10% fetal bovine serum. […] ISIS 549372, ISIS 549458, ISIS 549434, and ISIS 554221 were each added at 0.04 μM, 0.20 μM, 1.00 μM, and 5.00 μM concentrations of antisense oligonucleotide to culture media for free uptake by the cells. […] After a treatment period of 24 hrs, total AR mRNA levels were measured by quantitative real-time PCR using primer probe set RTS3559.

C4-2B cells [4] = assay: C4-2B cell proliferation, ASO in combination with MDV3100 (Example 19); type: cell-based, human
Description: C4-2B cells were plated at 1,500 cells per well. […] ISIS 347526 was included as a negative control. […] After a treatment period of 6 days, the proliferative capacity of the cancer cells was measured with CellTiter 96® AQueous One Solution Cell Proliferation kit (Promega), following the manufacturer's instructions. Results are presented in Table 46 as percent inhibition of proliferation, relative to non-treated cells. Treatment of the cells with ISIS 549372 or ISIS 549458 reduced proliferation of the cells more extensively than treatment with ISIS 554221.

C4-2B MR cells = assay: Proliferation of MDV3100-resistant C4-2B cells (CellTiter 96); type: cell-based, human; conditions: 0.04-5.00 μM, 6 days
Description: ISIS 549372, ISIS 549434, ISIS 549458, and ISIS 554221 were each added to the culture media at 0.04 μM, 0.20 μM, 1.00 μM, and 5.00 μM concentration of antisense oligonucleotide. ISIS 347526 was included as a negative control. After a treatment period of 6 days, the proliferative capacity of the cancer cells was measured with using CellTiter 96® AQueous One Solution Cell Proliferation kit (Promega), following the manufacturer's instructions. Results are presented in Table 41 as percent inhibition of proliferation, relative to non-treated cells.

MDA-MB-453 tumor = assay: Tumor volume in MDA-MB-453 breast cancer orthotopic model; type: in vivo, NSG mice; conditions: 50 mg/kg s.c. five times a week for 4 weeks; for Tumor volume: Study 1, MDA-MB-453 orthotopic, NSG mice
[5] = cynomolgus monkey, in vivo, sc, 40 mg/kg
Description: (§2) Prior to the study, the monkeys were kept in quarantine for a 30-day period, during which the animals were observed daily for general health. The monkeys were 2-4 years old and weighed between 2 and 4 kg. Thirteen groups of four randomly assigned male cynomolgus monkeys each were injected subcutaneously with ISIS oligonucleotide or PBS. PBS solution or ISIS oligonucleotides, at a dose of 40 mg/kg, were administered with a loading regimen consisting of four doses on the first week of the study (days 1, 3, 5, and 7), followed by a maintenance regimen consisting of once weekly administration starting on Day 14 (weeks 2 to 6). Subcutaneous injections were performed in clock-wise rotations at 4 sites on the back; one site per dose. The injection sites were delineated by tattoo, while sedated using ketamine, and were separated by a minimum of 3 cm.
To evaluate the effect of ISIS oligonucleotides on hepatic function, the monkeys were fasted overnight. Approximately, 1.5 mL of blood samples were collected on day 44 from all the study groups. Blood was collected in tubes without anticoagulant for serum separation. The tubes were kept at room temperature for a minimum of 90 min and then centrifuged at 3,000 rpm for 10 min. Levels of various liver function markers were measured using a Toshiba 120FR NEO chemistry analyzer (Toshiba Co., Japan).

AR mRNA [6] = assay: AR mRNA expression in MDA-MB-453 breast cancer orthotopic model; type: in vivo, human; conditions: Study 1; TB-interface, normalized to actin; 50 mg/kg s.c. five times a week for 4 weeks
[7] = cynomolgus monkey, in vivo, sc, 40 mg/kg; remark: listed apart in the source
[8] = cynomolgus monkey, in vivo, sc, 40 mg/kg; remark: listed apart in the source
Description: The monkeys were 2-4 years old and weighed between 2 and 4 kg. Thirteen groups of four randomly assigned male cynomolgus monkeys each were injected subcutaneously with ISIS oligonucleotide or PBS. PBS solution or ISIS oligonucleotides, at a dose of 40 mg/kg, were administered with a loading regimen consisting of four doses on the first week of the study (days 1, 3, 5, and 7), followed by a maintenance regimen consisting of once weekly administration starting on Day 14 (weeks 2 to 6). Subcutaneous injections were performed in clock-wise rotations at 4 sites on the back; one site per dose. The injection sites were delineated by tattoo, while sedated using ketamine, and were separated by a minimum of 3 cm.
To evaluate any inflammatory effect of ISIS oligonucleotides in cynomolgus monkeys, the monkeys were fasted overnight. Approximately, 1.5 mL of blood samples were collected from all the study groups on day 44. Blood was collected in tubes without anticoagulant for serum separation. The tubes were kept at room temperature for a minimum of 90 min and then centrifuged at 3,000 rpm for 10 min. C-reactive protein (CRP), which is synthesized in the liver and which serves as a marker of inflammation, was measured on day 43 using a Toshiba 120FR NEO chemistry analyzer (Toshiba Co., Japan). Complement C3 was also measured similarly, and the data is presented as a percentage of baseline values.

[9] = cynomolgus monkey, in vivo, sc, 40 mg/kg; remark: listed apart in the source
Description: as §2
To evaluate the effect of ISIS oligonucleotides on the overall health of the animals, body and organ weights were measured.

[10] = cynomolgus monkey, in vivo, sc, 40 mg/kg; remark: listed apart in the source
[11] = C4-2B MR cells, 1 μM ASO free uptake, 2 days (Example 15)

Q: Which “Percent inhibition of AR splice variant, V7” value (from here on “Percent inhibition … V7”) ([1]; dose 5.0 nM) does the source give for “AAGTTGTAGTAGTCGC (kA*kA*kG*dT*dT*dG*dT*dA*dG*dT*dA*dG*dT*k[5mC]*kG*k[5mC]) [ISIS 549372, targets exon 1]” here?
A: 35%

Q: And the “Percent inhibition … V7” value ([1]; dose 16.7 nM)?
A: 56%

Q: What about the “Percent inhibition … V7” value ([1]; dose 50.0 nM) of the same sequence?
A: 82%

Q: What about the “Percent inhibition of cell proliferation” value (C4-2B cells [2]; dose 0.04 μM) of the same sequence?
A: 8%

Q: What about the “Percent inhibition of cell proliferation” value (C4-2B cells [2]; dose 0.20 μM) of the same sequence?
A: 34%

Q: What about the “Percent inhibition of cell proliferation” value (C4-2B cells [2]; dose 1.00 μM) of the same sequence?
A: 44%

Q: What about the “Percent inhibition of cell proliferation” value (C4-2B cells [2]; dose 5.00 μM) of the same sequence?
A: 45%

Q: What about the “levels of AR-V7 (Western analysis)” value (AR-V7; C4-2B MR cells (Example 16)) of the same sequence?
A: reduced levels of full-length AR and AR-V7

Q: What about the “AR-V7 (western blot)” value (AR-V7; [11]) of the same sequence?
A: reduced full-length AR and AR-V7 more extensively than treatment with either ISIS 554221 or ISIS 549434

Q: And the “AR target gene KLK3 mRNA levels” value (KLK3 mRNA)?
A: reduced target gene levels in a dose dependent manner more extensively than treatment with ISIS 554221

Q: And the “Percent inhibition of AR full-length mRNA” value (AR full-length mRNA; dose 5.0 nM)?
A: 53%

Q: What about the “Percent inhibition of AR full-length mRNA” value (AR full-length mRNA; dose 16.7 nM) of the same sequence?
A: 64%

Q: And the “Percent inhibition of AR full-length mRNA” value (AR full-length mRNA; dose 50.0 nM)?
A: 78%

Q: What about the “AR target gene KLK2 mRNA levels” value (KLK2 mRNA) of the same sequence?
A: reduced target gene levels in a dose dependent manner more extensively than treatment with ISIS 554221

Q: And the “levels of full-length AR (Western analysis)” value (full-length AR; C4-2B MR cells (Example 16))?
A: reduced levels of full-length AR and AR-V7

Q: What about the “full-length AR (western blot)” value (full-length AR; [11]) of the same sequence?
A: reduced full-length AR and AR-V7 more extensively than treatment with either ISIS 554221 or ISIS 549434

Q: And the “AR mRNA expression” value (AR mRNA [3]; free uptake 0.04-5.00 μM)?
A: inhibited AR mRNA expression more potently than ISIS 554221

Q: And the “Percent inhibition of AR full-length mRNA” value (AR mRNA [3]; dose 0.04 μM)?
A: 10%

Q: What about the “Percent inhibition of AR full-length mRNA” value (AR mRNA [3]; dose 0.20 μM) of the same sequence?
A: 36%

Q: What about the “Percent inhibition of AR full-length mRNA” value (AR mRNA [3]; dose 1.00 μM) of the same sequence?
A: 73%

Q: What about the “Percent inhibition of AR full-length mRNA” value (AR mRNA [3]; dose 5.00 μM) of the same sequence?
A: 80%

Q: What about the “Percent inhibition of cell proliferation” value (CWR22-RV1 cells; dose 5.0 nM) of the same sequence?
A: 0%

Q: And the “Percent inhibition of cell proliferation” value (CWR22-RV1 cells; dose 16.7 nM)?
A: 25%

Q: And the “Percent inhibition of cell proliferation” value (CWR22-RV1 cells; dose 50.0 nM)?
A: 53%

Q: And the “total AR transcript levels” value (total AR mRNA)?
A: reduced total AR transcript levels in a dose dependent manner more extensively than treatment with ISIS 554221

Q: What about the “Percent inhibition of C4-2B cell proliferation with 0.1 μM ASO” value (“Percent inhibition … with 0.1 μM ASO” below) (C4-2B cells [4]; 0.1 μM ASO + MDV3100 1 μM, 6 days) of the same sequence?
A: 66%

Q: What about the “Percent inhibition … with 0.1 μM ASO” value (C4-2B cells [4]; 0.1 μM ASO + MDV3100 […], 6 days) of the same sequence?
A: 44%

Q: What about the “Percent inhibition … with 0.1 μM ASO” value (C4-2B cells [4]; 0.1 μM ASO, MDV3100 0 μM, 6 days) of the same sequence?
A: 23%

Q: What about the “Percent inhibition of C4-2B cell proliferation with 0.2 μM ASO” value (“Percent inhibition … with 0.2 μM ASO” below) (C4-2B cells [4]; 0.2 μM ASO + MDV3100 1 μM, 6 days) of the same sequence?
A: 77%

Q: What about the “Percent inhibition … with 0.2 μM ASO” value (C4-2B cells [4]; 0.2 μM ASO + MDV3100 […], 6 days) of the same sequence?
A: 69%

Q: What about the “Percent inhibition … with 0.2 μM ASO” value (C4-2B cells [4]; 0.2 μM ASO, MDV3100 0 μM, 6 days) of the same sequence?
A: 59%

Q: What about the “synergy with MDV3100” value (C4-2B cells [4]; C4-2B cells) of the same sequence?
A: synergistic with MDV3100

Q: What about the “cell proliferation inhibited, combination” value (C4-2B cells [4]; C4-2B cells, 0.1 μM ASO in combination with […] MDV3100) of the same sequence?
A: 66%

Q: And the “inhibited cell proliferation, ASO alone” value (C4-2B cells [4]; C4-2B cells, ASO alone at 0.1 μM)?
A: 23%

Q: And the “reduced cell proliferation, ASO alone” value (C4-2B cells [4]; C4-2B cells, ASO alone, 6 days, Table 46 (0.1 μM ASO))?
A: 59%

Q: And the “prostate cancer cell proliferation, ASO in combination with MDV3100” value (C4-2B cells [4]; C4-2B cells, versus equal molar ISIS 554221 + MDV3100)?
A: inhibited prostate cancer cell proliferation to a greater extent than an equal molar concentration of ISIS 554221 in combination of MDV3100

Q: What about the “proliferation of C4-2B MR cells” value (C4-2B MR cells) of the same sequence?
A: reduced proliferation of the cells in a dose dependent manner more extensively than treatment with ISIS 554221

Q: With “TGATTTAATGGTTGCA [ISIS 569216] (cEt/MOE gapmer chemistry, further chemistry not given here)” as the sequence, how does the Tumor volume (MDA-MB-453 tumor; Day 16) read?
A: 134

Q: What about the Tumor volume (MDA-MB-453 tumor; Day 23) of the same sequence?
A: 142

Q: What about the Tumor volume (MDA-MB-453 tumor; Day 30) of the same sequence?
A: 173

Q: And the Tumor volume (MDA-MB-453 tumor; Day 37)?
A: 125

Q: What about the Tumor volume (MDA-MB-453 tumor; Day 44) of the same sequence?
A: 92

Q: And the Tumor volume (MDA-MB-453 tumor; Day 51)?
A: 73

Q: What about the Tumor volumes (MDA-MB-453 tumor; Study 1, MDA-MB-453 model) of the same sequence?
A: tumor volumes were significantly decreased

Q: What about the ALT [5] of the same sequence?
A: 75 IU/L

Q: And the AST [5]?
A: 93 IU/L

Q: What about the Albumin [5] of the same sequence?
A: 3.7 g/dL

Q: And the “AR mRNA expression inhibited compared to the control group” value (AR mRNA [6])?
A: 48%

Q: And the HCT [7]?
A: 43%

Q: What about the Hemoglobin [7] of the same sequence?
A: 12.8 g/dL

Q: And the Platelets [7]?
A: 504000 µL

Q: What about the RBC [7] of the same sequence?
A: 5.6e+06 µL

Q: What about the WBC [7] of the same sequence?
A: 12200 µL

Q: And the “C3 (% of baseline)” value [8]?
A: 94 % of baseline

Q: And the CRP [8]?
A: 3.6 mg/dL

Q: And the “Body Wt” value [9]?
A: 2.6 kg

Q: And the Heart weight [9]?
A: 9.3 g

Q: And the Kidney weight [9]?
A: 15 g

Q: And the Liver weight [9]?
A: 71 g

Q: And the “Mesenteric lymph nodes weight” value [9]?
A: 2.7 g

Q: And the Spleen weight [9]?
A: 4.9 g

Q: And the “Plasma BUN” value [10]?
A: 28.4 mg/dL

Q: And the “Plasma Creatinine” value [10]?
A: 0.81 mg/dL
